Measurements published in PMC4434909, “In vitro properties of designed antimicrobial peptides that exhibit potent antipneumococcal activity and produces synergism in combination with penicillin” (Scientific Reports, 2015).
Entries after “also recorded” stand apart in the source; their conditions may differ. Like-named read-outs stand apart in the source and are kept apart here. Where no end group is shown, it is not given here.

What was measured:
A549 cell line = experiment: Cytotoxicity against human cell lines (CellTiter 96 AQueous); assay type: cell-based
Experimental: (§1) Both the NL20 human lung bronchial normal epithelial cell line and the A549 human lung alveolar adenocarcinoma epithelial cell line were used for cell cytotoxicity tests. Besides investigating the cytotoxicity of peptides, differences in cell viability between the two cell lines can be used to evaluate the cell line selectivity and to assess potential anticancer potential of the peptides. NL20 cell line was grown in Ham's F12 medium and A549 cell line was grown in Roswell Park Memorial Institute medium. Both media were supplemented with fetal bovine serum to 10% (v/v) as growth medium or 2% (v/v) as maintenance medium in cell cytotoxicity testing. The assay was performed as described by Lee et al.[26]. NL20 cells was seeded overnight at 3 × 10^4 cells/well in 96-well cell culture-treated flat bottom microtiter plate and treated with serial dilutions of peptide at a final concentration of 1.95–250 μg/ml. PEN was tested from 0.03–4 μg/ml, the same range used to classify the susceptibility of pneumococcal isolates in this study. Test using A549 cells followed the same procedures with 1 × 10^4 cells/well. Plates were incubated at 37°C under 5% CO2 for 24, 48, and 72 hrs. Cell viability was detected by using CellTiter 96® AQueous Non-Radioactive Cell Proliferation assay (Promega, USA) and the colorimetric changes were read with Glomax multidetection system (Promega, USA) at OD 490 nm. Results were pooled from three independent experiments and expressed as mean ± SD. […] Imax was the percentage of cell viable treated with peptides/PEN at the maximum concentration as defined throughout this study (all peptides 250 μg/ml, PEN 4 μg/ml).

NL20 cell line = experiment: as above; assay type: cell-based
Experimental: as §1

MRSA = assay type: cell-based, methicillin-resistant S. aureus
Text: (§2) All bacterial strains were obtained from Department of Medical Microbiology, University of Malaya. Clinical isolates were previously obtained from University of Malaya Medical Centre and maintained in the laboratory. Sheep blood agar was used for pneumococcal cultivation purpose. Nutrient agar was used for cultivating E. coli ATCC 25922, S. aureus ATCC 25923, and P. aeruginosa ATCC 15442, Acinetobacter baumanii ATCC 15308, and one clinical isolate for each MRSA, E. cloacae, Citrobacter spp., and K. pneumoniae. For antimicrobial testing, Mueller-Hinton agar (MHA) and cationically-adjusted MHB (CAMHB) were prepared according to the Clinical and Laboratory Standard Institute guidelines. MHA for S. pneumoniae was supplemented with 5% (v/v) defibrinated sheep blood and 5% laked horse blood for CAMHB. All bacterial cultures were stored in multiple vials in brain heart infusion broth supplemented with 10% (v/v) glycerol at −80°C to avoid repeated freeze-thawed cycles on the cells. All freeze-stocked strains were passaged twice prior to experimentation.
(§3) Procedures were performed to determine the MIC of peptides according to the CLSI guidelines[21] against 60 pneumococcal isolates which consisted of 20 isolates each for PRSP, PISP, and PSSP. Strains were grown for 18–24 hrs at 37°C under 5% CO2. Direct suspension of the colonies were made in CAMHB and adjusted to OD625 0.08–0.1 which corresponds to 1 ~ 2 × 10^8 CFU/ml followed by serial ten-fold dilutions to give 1 × 10^6 CFU/ml. Fifty microliters of bacterial suspension was then aliquoted to 96-well round bottom microtiter plates containing equal volume of serially diluted peptides to give final concentrations of peptides encompassing the range of 1.96–250 μg/ml. […] The plates were incubated for 18–24 hrs at 37°C under 5% CO2. MIC was read as the concentration of peptide producing complete inhibition on the visible growth of the test organism. Results were pooled from three independent experiments. MIC range was defined as the range of concentrations where the peptides produce detectable antimicrobial activity. Effective percentage (EP) was the proportion of pneumococcal isolates inhibited within the MIC range. Since the isolates tested were obtained prior to 2008 where major revision in antibiotic susceptibility breakpoints were introduced, thus the pneumococci were defined according to the PEN susceptibility breakpoint (prior 2008) which corresponds to the PEN (oral penicillin V) breakpoint of the revised criteria.
(§4) The broad spectrum antibacterial activity of the peptides against a panel of eight clinically important bacteria was also determined, this includes S. aureus ATCC 25923, E. coli ATCC 25922, P. aeruginosa ATCC 15442, A. baumanii ATCC 15308, and one clinical isolate each for MRSA, E. cloacae, Citrobacter spp., and K. pneumoniae.

PRSP = experiment: Transmission electron microscopy of treated pneumococci; assay type: cell-based, Streptococcus pneumoniae; settings: PRSP 5 × 10^10 CFU/ml, peptides 8 mg/ml, four hours 37°C 5% CO2
Experimental: An overnight culture of PRSP on sheep blood agar was passaged twice and directly suspended in CAMHB. As sample for TEM required high cell density of about 10^8 to 10^10 to be viewable, the bacteria was prepared to 5 × 10^10 CFU/ml and treated with supra-concentration of peptides at 8 mg/ml for four hours at 37°C under 5% CO2. Cells treated with only water was served as the untreated control. For TEM sample preparation, standard protocol provided by the Electron Microscopic Unit, Faculty of Medicine, University of Malaya was followed. The cells were washed twice with CAMHB before overnight fixation in 4% (v/v) glutaraldehyde, two times postfix washes with cacodylate buffer, incubate, two hours incubation with osmium tetroxide buffer (OsO4 1: 1 cacodylate), and washed twice with cacodylate buffer before overnight incubation in the same buffer. Next, the samples were washed twice with double distilled water, 10 min of uranyl acetate incubation, and washed twice with double distilled water before subjected to dehydration by gradual ethanol series: 35% for 10 min, 50% for 10 min, 70% for 10 min, 95% for 15 min, and three rounds of absolute (100%) ethanol for 15 min. Following this, samples were incubated with two rounds of propylene oxide for 15 min, propylene oxide 1:1 Epon for 1 hr, propylene oxide 1:3 Epon for 2 hrs, overnight incubation with Epon, embedded in Agar 100 resin at 37°C for five hours, and maintained in 60°C until viewing. Ultrathin sectioning were prepared on Reichert Ultramicrotome, copper grids 3.05 mm (300 square mesh) (Agar Scientific), and stained with ethanol-based uranyl acetate and lead citrate for 5 min. The prepared samples were viewed with Leo Libra 120 under standard operating conditions.

S. aureus ATCC 25923 = assay type: cell-based
Text: as §2, §3, §4

E. cloaceae = assay type: cell-based, E. cloacae; settings: Gram-negative, clinical isolate; broth microdilution, CAMHB, peptides 1.96–250 μg/ml
Text: as §2, §3, §4

[1] = tested on: multiple gram-positive and gram-negative bacteria; assay type: cell-based; settings: range: DM3 against seven bacteria; DM4 and DM5 apart from higher MICs against E. cloaceae, K. pneumoniae, S. aureus
Text: as §2, §3, §4

[2] = concentration reducing cell viability to 50%, 24 hrs, 2% FBS medium, OD 490 nm, mean ± SD of three independent experiments
[3] = concentration reducing cell viability to 50%, 48 hrs, 2% FBS medium, OD 490 nm, mean ± SD of three independent experiments
[4] = concentration reducing cell viability to 50%, 72 hrs, 2% FBS medium, OD 490 nm, mean ± SD of three independent experiments
[5] = percentage cell viability at the highest concentration (peptides 250 μg/ml; PEN 4 μg/ml), 24 hrs, mean ± SD
[6] = percentage cell viability at the highest concentration (peptides 250 μg/ml; PEN 4 μg/ml), 48 hrs, mean ± SD
[7] = percentage cell viability at the highest concentration (peptides 250 μg/ml; PEN 4 μg/ml), 72 hrs, mean ± SD
[8] = Gram-positive, clinical isolate, broth microdilution, CAMHB, peptides 1.96–250 μg/ml
[9] = Gram-positive, broth microdilution, CAMHB, peptides 1.96–250 μg/ml
[10] = bound stated in text for 24, 48 and 72 hrs together

Row | Substance | IC50, A549 cell line, 24 hrs (A549 cell line; 24 h) | IC50, A549 cell line, 48 hrs (A549 cell line; 48 h) | IC50, A549 cell line, 72 hrs (A549 cell line; 72 h) | Imax, NL20 cell line, 24 hrs (NL20 cell line) | Imax, NL20 cell line, 48 hrs (NL20 cell line) | Imax, NL20 cell line, 72 hrs (NL20 cell line) | IC50, NL20 cell line, 24 hrs (NL20 cell line; 24 h) | IC50, NL20 cell line, 48 hrs (NL20 cell line; 48 h) | IC50, NL20 cell line, 72 hrs (NL20 cell line; 72 h) | MIC, MRSA (MRSA; methicillin-resistant) | changes in pneumococcal cell morphology (TEM) (PRSP) | MIC, S. aureus ATCC 25923 (S. aureus ATCC 25923; ATCC 25923) | MIC, E. cloaceae (E. cloaceae) | antibacterial MIC range over the bacterial panel [1] | IC50, A549 cell line, 24 hrs (A549 cell line; [2]) | IC50, A549 cell line, 48 hrs (A549 cell line; [3]) | IC50, A549 cell line, 72 hrs (A549 cell line; [4]) | Imax, A549 cell line, 24 hrs (A549 cell line; [5]) | Imax, A549 cell line, 48 hrs (A549 cell line; [6]) | IC50, NL20 cell line, 24 hrs (NL20 cell line; [2]) | also measured
1 | GLFDIWAWWRWRR-NH2 [DM2] | > 250 µg/mL | 197.7 µg/mL | 165.0 µg/mL | 64.3 ± 7.0% | 53.3 ± 9.1% | 46.8 ± 4.0% | >250 µg/mL | >250 µg/mL | 241.5 ± 9.0 µg/mL | 62.5 µg/mL | filamentous and stacked at one pole of the cell | 31.3 µg/mL | >250 µg/mL | – | – | – | – | – | – | – | –
2 | GLFDIWKKLRWRR-NH2 [DM5] | 97.0 ± 9.8 µg/mL | 106.3 ± 15.7 µg/mL | 101.7 ± 9.5 µg/mL | 7.3 ± 2.4% | 8.3 ± 4.2% | 9.7 ± 5.4% | 179.2 ± 3.8 µg/mL | 188.2 ± 4.9 µg/mL | 191.7 ± 3.5 µg/mL | 62.5 µg/mL | Loss of cell wall fragments; also recorded: formation of cytoplasmic-containing inclusion bodies | 125 µg/mL | 125 µg/mL | 31.3 to 62.5 µg/mL | – | – | – | – | – | – | IC50 of NL20 cells higher than A549 cells by, 24 hrs (NL20 cell line; 24 h): 82.2 µg/mL; IC50 of NL20 cells higher than A549 cells by, 48 hrs (NL20 cell line; 48 h): 81.9 µg/mL; IC50 of NL20 cells higher than A549 cells by, 72 hrs (NL20 cell line; 72 h): 90.0 µg/mL
3 | GLFDIWKKWRWRR-NH2 [DM4] | – | – | – | – | – | – | – | – | – | – | Loss of cell wall fragments | – | 250 µg/mL | 31.3 to 62.5 µg/mL | 93.3 ± 5.1 µg/mL | 103.0 ± 17.5 µg/mL | 107.5 ± 16.3 µg/mL | 8.5 ± 3.8% | 8.9 ± 1.4% | 160.2 ± 11.8 µg/mL | IC50, NL20 cell line, 48 hrs (NL20 cell line; [3]): 167.3 ± 5.9 µg/mL; IC50, NL20 cell line, 72 hrs (NL20 cell line; [4]): 205.0 ± 7.0 µg/mL; IC50 of NL20 cells higher than A549 cells by, 24 hrs (NL20 cell line; difference IC50 NL20 minus IC50 A549, 24 hrs): 66.9 µg/mL; IC50 of NL20 cells higher than A549 cells by, 48 hrs (NL20 cell line; difference IC50 NL20 minus IC50 A549, 48 hrs): 64.3 µg/mL; IC50 of NL20 cells higher than A549 cells by, 72 hrs (NL20 cell line; difference IC50 NL20 minus IC50 A549, 72 hrs): 97.5 µg/mL; Imax, NL20 cell line, 24 hrs (NL20 cell line; [5]): 6.9 ± 6.8%; Imax, NL20 cell line, 48 hrs (NL20 cell line; [6]): 5.9 ± 2.5%; Imax, NL20 cell line, 72 hrs (NL20 cell line; [7]): 30.2 ± 2.9%; MIC, MRSA (MRSA; [8]): 62.5 µg/mL; MIC, S. aureus ATCC 25923 (S. aureus ATCC 25923; [9]): 62.5 µg/mL
4 | GLFDIWKWWRWRR-NH2 [DM3] | 56.0 ± 9.3 µg/mL | 80.0 ± 1.7 µg/mL | 96.2 ± 4.4 µg/mL | 13.3 ± 2.1% | 24.0 ± 7.6% | 12.4 ± 4.5% | 68.5 ± 11.0 µg/mL | 91.5 ± 7.6 µg/mL | 112.2 ± 8.8 µg/mL | 7.81 µg/mL | formation of cytoplasmic-containing inclusion bodies | 15.63 µg/mL | 31.3 µg/mL | 7.81 to 62.5 µg/mL | – | – | – | – | – | – | –
5 | GLFDKWAWWRWRR-NH2 [DM1] | – | – | – | – | – | – | – | – | – | – | formation of cytoplasmic-containing inclusion bodies | – | 125 µg/mL | – | 215.3 ± 19.7 µg/mL | 195.0 ± 25.2 µg/mL | >250 µg/mL | 38.6 ± 6.2% | 39.8 ± 7.7% | 221.8 ± 7.8 µg/mL | IC50 against A549 cell line, over all time points (A549 cell line; [10]): ≥ 195.0 µg/mL; Imax, A549 cell line, 72 hrs (A549 cell line; [7]): 66.2 ± 7.2%; IC50 against NL20 cell line, over all time points (NL20 cell line; [10]): > 220 µg/mL; IC50, NL20 cell line, 48 hrs (NL20 cell line; [3]): 235.7 ± 12.9 µg/mL; IC50, NL20 cell line, 72 hrs (NL20 cell line; [4]): 242.2 ± 7.3 µg/mL; Imax, NL20 cell line, 24 hrs (NL20 cell line; [5]): 35.3 ± 6.6%; Imax, NL20 cell line, 48 hrs (NL20 cell line; [6]): 42.2 ± 8.6%; Imax, NL20 cell line, 72 hrs (NL20 cell line; [7]): 45.9 ± 4.3%; MIC, MRSA (MRSA; [8]): 62.5 µg/mL; MIC, S. aureus ATCC 25923 (S. aureus ATCC 25923; [9]): 125 µg/mL
